The subject of data set [1] is Sprague Dawley (SD) rats. Description: Liver function tests after single oral PAR overdose with or without GFJ or BGT. The data set is classed as in vivo, rat. To be noted: for Liver function tests ALP / Liver function tests ALT / Liver function tests AST: PAR 1725 mg/kg oral alone, mean ± SD, n = 5.
The nature of data set [2]: PAR plasma concentration by HPLC. The note with it: Sprague Dawley, rat, oral, 1725 mg/kg. The data set is classed as in vivo.
Data set [3] relates to Sprague Dawley (SD) rats. The data set is described as follows: Full blood count after drug administration. The data set is classed as in vivo, rat. To be noted: for Full blood count Hb / Full blood count Hct / Full blood count MCH / Full blood count MCHC / Full blood count MCV / Full blood count Plt / Full blood count RCC / Full blood count WCC: PAR 1725 mg/kg oral alone, mean ± SD, n = 3; for thrombocytopenia (low platelet count): all test animals given PAR, GFJ and BGT = groups co-treated with PAR.

Data set [4] relates to SD rats. Description: Preliminary determination of the toxic dose of PAR. The data set is classed as in vivo, rat. To be noted: preliminary experiment.
Data set [5] deals with humans. To be noted: stated without reference; cited from earlier work.
The test system of data set [6] is P450 enzymes CYP1A2, CYP2C9, CYP2C19, CYP2D6 and CYP3A4. The note with it: furanocoumarin dimers versus monomer; cited from earlier work.
[7] abbreviates: 48 h after dosing, listed as PAR only.
Setting [8] is: 48 h after dosing, listed as PAR-only.
The mark [9] stands for this setting: PAR 1725 mg/kg single dose, 72 h, 3 rats.
The mark [10] stands for this setting: PAR 1822 mg/kg single dose, 72 h, 3 rats.

With `CC(=O)Nc1ccc(O)cc1` [PAR, paracetamol], in data set [1] (24 h after dosing), the “Liver function tests ALP” value is on record as 319 ± 2.1 units/l, the “Liver function tests ALT” value stood at 63 ± 41.3 units/l and the “Liver function tests AST” value is given as 156 ± 76.2 units/l. Besides, the “Liver function tests ALP” value in data set [1] (48 h after dosing) came to 296 ± 148.5 units/l. Further, in data set [1] (setting [7]), the “Liver function tests ALT” value was 837 ± 268 units/l and the “Liver function tests AST” value is 1359 ± 405 units/l. Also, in data set [1] (setting [8]), the “Liver function tests ALT” value stood at 837 ± 268.0 units/l and the “Liver function tests AST” value is 1359 ± 404.5 units/l. Also, in data set [1] (72 h after dosing), the “Liver function tests ALP” value is given as 267 ± 38.9 units/l, the “Liver function tests ALT” value was 419 ± 690.1 units/l and the “Liver function tests AST” value is given as 512 ± 657.9 units/l. Besides, in data set [2], the concentration at 24 h is 5720 ng/mL, the concentration at 48 h is 4450 ng/mL and the concentration at 72 h stood at 2020 ng/mL. Besides, in data set [3] (24 h), the “Full blood count Hb” value is on record as 15.2 ± 0, the “Full blood count Hct” value came out at 0.439 ± 0, the “Full blood count MCH” value worked out at 19.9 ± 0 and the “Full blood count MCHC” value amounted to 34.5 ± 0. Besides, in data set [3] (24 h), the “Full blood count MCV” value was determined as 57.6 ± 1, the “Full blood count Plt” value is reported as 1159 ± 81, the “Full blood count RCC” value was 7.6 ± 0 and the “Full blood count WCC” value was found to be 4.1 ± 1. Also, in data set [3] (48 h), the “Full blood count Hb” value was found to be 15.3 ± 1, the “Full blood count Hct” value is 0.464 ± 0, the “Full blood count MCH” value stood at 20.4 ± 0 and the “Full blood count MCHC” value is 33.1 ± 0. For the same compound, in data set [3] (48 h), the “Full blood count MCV” value is listed as 61.1 ± 1, the “Full blood count Plt” value amounted to 310 ± 305, the “Full blood count RCC” value is 7.5 ± 0 and the “Full blood count WCC” value came to 5.9 ± 0. In data set [3] (72 h), the “Full blood count Hb” value is reported as 13.6 ± 2, the “Full blood count Hct” value turned out to be 0.406 ± 0, the “Full blood count MCH” value was determined as 19.8 ± 1 and the “Full blood count MCHC” value worked out at 33.7 ± 1. In data set [3] (72 h), the “Full blood count MCV” value was found to be 58.9 ± 4, the “Full blood count Plt” value amounted to 326 ± 293, the “Full blood count RCC” value is 6.8 ± 1 and the “Full blood count WCC” value turned out to be 4.7 ± 1. Further, the “thrombocytopenia (low platelet count)” value in data set [3] was “thrombocytopenia”. In data set [4] (PAR 1000 mg dose, 24, 48 and 72 h), the “change in liver enzymes” value is given as “no change”. Moreover, in data set [4] (setting [9]), the ALP is given as 260.0 ± 36 and the AST is reported as 512.0 ± 593. In data set [4] (setting [10]), this compound came in with an ALP of 223.7 ± 82, an ALT of 44.3 ± 3 and an AST of 104.0 ± 14. Moreover, the “hepatotoxic dose of PAR in humans” value in data set [5] is listed as 100 mg/kg.
Take paradisine A: in data set [6], the “enzyme inhibitor potency relative to 6-7-dihydroxybergamottin (DHB)” value was “over 20 times” and the “enzyme inhibitor potency relative to BGT (GF-I-2)” value is recorded as “over 100 times”.
Turning to paradisine B, in data set [6], the “enzyme inhibitor potency relative to 6-7-dihydroxybergamottin (DHB)” value is reported as “over 20 times” and the “enzyme inhibitor potency relative to BGT (GF-I-2)” value is given as “over 100 times”.
As to `CC(C)=CCC/C(C)=C/COc1c2ccoc2cc2oc(=O)ccc12` [BGT, bergamottin], the “PAR-induced hepatotoxicity after PAR overdose” value in data set [1] (co-administered orally with PAR 1725 mg/kg in rats) was “prevented”. Besides, in data set [3], the “thrombocytopenia (low platelet count)” value is “moderate”.
